Patent US12331026B2 (NiKang Therapeutics, Inc., priority 2022, dated 2025)

Target: T1, CDK2 (Homo sapiens, UniProt P24941)
T1 construct: endogenous in cells; host or cells: OVCAR3 cells
Assay: Phospho-RB measurement in OVCAR3 cells (HTRF phospho-RB S807/811)
Assay type: cell-based
Conditions: phosphorylation of RB protein at S807/811, HTRF, 24 h compound treatment, 0.3 to 10,000 nM, read-out: pRb (uM)
Protocol: The ability of compounds of Formula (I) to inhibit CDK2 was determined in OVCAR3 cells. Phosphorylation of RB protein at S807/811 were measured using HTRF phospho-RB cellular kits (Cat #64RBS807PEG) from Cisbio.
On Day 1, OVCAR3 cells were seeded into 96-well tissue-culture treated plates at 20,000 cells/well in 200 μL and incubated overnight at 37° C. in CO2 atmosphere. On Day 2, the cells were treated with test compounds at concentrations from 0.3 to 10,000 nM using HP D300 digital dispenser. Twenty-four hours after compound treatment, cell culture media was removed by flicking the plate and tapping the plate against clean paper towel. Immediately 30 μL 1× lysis buffer was supplemented from the kit and the plate was incubated at room temperature on shaker for 30 min. After homogenization by pipetting up and down, 8 μL cell lysate from 96-well cell culture plate was transferred to 384-well small volume white detection plate. 2 μL premixed detection solution was added and the plate was covered with sealer. To prepare the detection solution, d2 conjugated-phospho-RB antibody and Eu-cryptate conjugated phosphor-RB antibody were diluted into detection buffer following manufacturer's instruction.
Detection plates were incubated for 4 h at room temperature and read on ClarioStar (BMG Labtech) in TR-FRET mode ([…]). The TR-FRET ratio (665 nM1/620 nM) was plotted against the compound concentration and normalized to DMSO controls. Half maximal inhibition concentration (IC50) values are calculated with a four-parameter logistic fit using GraphPad Prism (version 8; La Jolla, CA).

Compound	IC50 [µM]
O=S1(=O)CC2(CC(Nc3nccc(-c4sc(N5C6CCC5CN(C5CCOC5)C6)nc4-c4cccc(NS(=O)(=O)c5c(F)cccc5F)c4F)n3)C2)C1 (stereo not shown) [Example 44, N-(3-(5-(2-((2,2-dioxido-2-thiaspiro[3.3]heptan-6-yl)amino)-pyrimidin-4-yl)-2-(3-(tetrahydrofuran-3-yl)-3,8-diazabicyclo-[3.2.1]octan-8-yl)thiazol-4-yl)-2-fluorophenyl)-2,6-difluoro-benzenesulfonamide]	0.66
O=S1(=O)CC(N2CC3CCC(C2)N3c2nc(-c3cccc(NS(=O)(=O)c4c(F)cccc4F)c3F)c(-c3ccnc(NC4CC5(C4)CS(=O)(=O)C5)n3)s2)C1 [Example 45, N-(3-(5-(2-((2,2-dioxido-2-thiaspiro[3.3]heptan-6-yl)amino)-pyrimidin-4-yl)-2-(3-(1,1-dioxidothietan-3-yl)-3,8-diazabicyclo[3.2.1]octan-8-yl)thiazol-4-yl)-2-fluorophenyl)-2,6-difluorobenzenesulfonamide]	4.14
CC1(O)CC(N2CC3CCC(C2)N3c2nc(-c3cccc(NS(=O)(=O)c4c(F)cccc4F)c3F)c(-c3ccnc(NC4CC5(C4)CS(=O)(=O)C5)n3)s2)C1 (stereo not shown) [Example 46, N-(3-(5-(2-((2,2-dioxido-2-thiaspiro[3.3]heptan-6-yl)amino)-pyrimidin-4-yl)-2-(3-(3-hydroxy-3-methylcyclobutyl)-3,8-diazabicyclo[3.2.1]octan-8-yl)thiazol-4-yl)-2-fluorophenyl)-2,6-difluorobenzenesulfonamide]	1.36
O=S1(=O)CC2CCC(C1)N2c1nc(-c2cccc(NS(=O)(=O)c3c(F)cccc3F)c2F)c(-c2ccnc(NC3CC4(C3)CS(=O)(=O)C4)n2)s1 [Example 48, N-(3-(5-(2-((2,2-dioxido-2-thiaspiro[3.3]heptan-6-yl)amino)-pyrimidin-4-yl)-2-(3,3-dioxido-3-thia-8-azabicyclo[3.2.1]octan-8-yl)thiazol-4-yl)-2-fluorophenyl)-2,6-difluorobenzenesulfonamide]	7.13
CC1(C#N)CC(N2CC3CCC(C2)N3c2nc(-c3cccc(NS(=O)(=O)c4c(F)cccc4F)c3F)c(-c3ccnc(NC4CC5(C4)CS(=O)(=O)C5)n3)s2)C1 (stereo not shown) [Example 49, N-(3-(2-(3-(3-cyano-3-methylcyclobutyl)-3,8-diazabicyclo-[3.2.1]octan-8-yl)-5-(2-((2,2-dioxido-2-thiaspiro[3.3]heptan-6-yl)amino)pyrimidin-4-yl)thiazol-4-yl)-2-fluorophenyl)-2,6-difluorobenzenesulfonamide]	1.13
CN1CC2CCC(C1)N2c1nc(-c2cccc(NS(=O)(=O)c3c(F)cccc3C(F)(F)F)c2F)c(-c2ccnc(NC3CC4(C3)CS(=O)(=O)C4)n2)s1 [Example 51, N-(3-(5-(2-((2,2-dioxido-2-thiaspiro[3.3]heptan-6-yl)amino)-pyrimidin-4-yl)-2-(3-methyl-3,8-diazabicyclo[3.2.1]octan-8-yl)thiazol-4-yl)-2-fluorophenyl)-2-fluoro-6-(trifluoromethyl)-benzenesulfonamide]	0.04
O=S1(=O)CC2(CC(Nc3nccc(-c4sc(N5C6CCC5CN(C5CCC5)C6)nc4-c4cccc(NS(=O)(=O)c5c(F)cccc5F)c4F)n3)C2)C1 [Example 52, N-(3-(2-(3-cyclobutyl-3,8-diazabicyclo[3.2.1]octan-8-yl)-5-(2-((2,2-dioxido-2-thiaspiro[3.3]heptan-6-yl)amino)pyrimidin-4-yl)thiazol-4-yl)-2-fluorophenyl)-2,6-difluorobenzenesulfonamide]	0.08
COc1cccc(F)c1S(=O)(=O)Nc1cccc(-c2nc(N3C4CCC3CN(C)C4)sc2-c2ccnc(NC3CC4(C3)CS(=O)(=O)C4)n2)c1F [Example 57, N-(3-(5-(2-((2,2-dioxido-2-thiaspiro[3.3]heptan-6-yl)amino)-pyrimidin-4-yl)-2-(3-methyl-3,8-diazabicyclo[3.2.1]octan-8-yl)thiazol-4-yl)-2-fluorophenyl)-2-fluoro-6-methoxybenzenesulfonamide]	0.6

Other lines, results leading:

IC50 [µM]	Compound
0.05	O=S1(=O)CC2(CC(Nc3nccc(-c4sc(C56CC(C5)C6)nc4-c4cccc(NS(=O)(=O)c5c(F)cccc5C(F)F)c4F)n3)C2)C1 [Example 47, N-(3-(2-(bicyclo[1.1.1]pentan-1-yl)-5-(2-((2,2-dioxido-2-thiaspiro[3.3]heptan-6-yl)amino)pyrimidin-4-yl)thiazol-4-yl)-2-fluorophenyl)-2-(difluoromethyl)-6-fluorobenzenesulfonamide]
0.19	O=S1(=O)CC2(CC(Nc3nccc(-c4sc(N5C6CCC5CN(C5CC(F)(F)C5)C6)nc4-c4cccc(NS(=O)(=O)c5c(F)cccc5C(F)F)c4F)n3)C2)C1 [Example 50, N-(3-(2-(3-(3,3-difluorocyclobutyl)-3,8-diazabicyclo[3.2.1]octan-8-yl)-5-(2-((2,2-dioxido-2-thiaspiro[3.3]heptan-6-yl)amino)pyrimidin-4-yl)thiazol-4-yl)-2-fluorophenyl)-2-(difluoromethyl)-6-fluorobenzenesulfonamide]
0.04	CC1CN(C)CC(C)N1c1nc(-c2cccc(NS(=O)(=O)c3c(F)cccc3F)c2F)c(-c2ccnc(NC3CC4(C3)CS(=O)(=O)C4)n2)s1 (stereo not shown) [Example 53, N-(3-(5-(2-((2,2-dioxido-2-thiaspiro[3.3]heptan-6-yl)amino)-pyrimidin-4-yl)-2-(2,4,6-trimethylpiperazin-1-yl)thiazol-4-yl)-2-fluorophenyl)-2,6-difluorobenzenesulfonamide]
0.2	N#CC12CCC(CC1)N2c1nc(-c2cccc(NS(=O)(=O)c3c(F)cccc3F)c2F)c(-c2ccnc(NC3CC4(C3)CS(=O)(=O)C4)n2)s1 [Example 54, N-(3-(2-(1-cyano-7-azabicyclo[2.2.1]heptan-7-yl)-5-(2-((2,2-dioxido-2-thiaspiro[3.3]heptan-6-yl)amino)pyrimidin-4-yl)thiazol-4-yl)-2-fluorophenyl)-2,6-difluorobenzenesulfonamide]
1.35	COc1cccc(F)c1S(=O)(=O)Nc1cccc(-c2nc(C34CC(C3)C4)sc2-c2ccnc(NC3CC4(C3)CS(=O)(=O)C4)n2)c1F [Example 55, N-(3-(2-(bicyclo[1.1.1]pentan-1-yl)-5-(2-((2,2-dioxido-2-thiaspiro[3.3]heptan-6-yl)amino)pyrimidin-4-yl)thiazol-4-yl)-2-fluorophenyl)-2-fluoro-6-methoxybenzenesulfonamide]
0.11	C[C@@H]1COC[C@@H](C)N1c1nc(-c2cccc(NS(=O)(=O)c3c(F)cccc3F)c2F)c(-c2ccnc(NC3CC4(C3)CS(=O)(=O)C4)n2)s1 [Example 56, N-(3-(2-((3R,5R)-3,5-dimethylmorpholino)-5-(2-((2,2-dioxido-2-thiaspiro[3.3]heptan-6-yl)amino)pyrimidin-4-yl)thiazol-4-yl)-2-fluorophenyl)-2,6-difluorobenzenesulfonamide]
0.09	O=S1(=O)CC2(CC(Nc3nccc(-c4sc(C56CC(C5)C6)nc4-c4cccc(NS(=O)(=O)c5c(F)cccc5OC(F)F)c4F)n3)C2)C1 [Example 58, N-(3-(2-(bicyclo[1.1.1]pentan-1-yl)-5-(2-((2,2-dioxido-2-thiaspiro[3.3]heptan-6-yl)amino)pyrimidin-4-yl)thiazol-4-yl)-2-fluorophenyl)-2-(difluoromethoxy)-6-fluorobenzenesulfonamide]
3.01	C[C@@H]1CNC[C@@H](C)N1c1nc(-c2cccc(NS(=O)(=O)c3c(F)cccc3F)c2F)c(-c2ccnc(NC3CC4(C3)CS(=O)(=O)C4)n2)s1 [Example 59, N-(3-(2-((2R,6R)-2,6-dimethylpiperazin-1-yl)-5-(2-((2,2-dioxido-2-thiaspiro[3.3]heptan-6-yl)amino)pyrimidin-4-yl)thiazol-4-yl)-2-fluorophenyl)-2,6-difluorobenzenesulfonamide]
0.9	C[C@@H]1CN(C)C[C@@H](C)N1c1nc(-c2cccc(NS(=O)(=O)c3c(F)cccc3F)c2F)c(-c2ccnc(NC3CC4(C3)CS(=O)(=O)C4)n2)s1 [Example 60, N-(3-(5-(2-((2,2-dioxido-2-thiaspiro[3.3]heptan-6-yl)amino)-pyrimidin-4-yl)-2-((2R,6R)-2,4,6-trimethylpiperazin-1-yl)thiazol-4-yl)-2-fluorophenyl)-2,6-difluorobenzenesulfonamide]
0.34	C[C@@H]1CN(C2CC(F)(F)C2)C[C@@H](C)N1c1nc(-c2cccc(NS(=O)(=O)c3c(F)cccc3F)c2F)c(-c2ccnc(NC3CC4(C3)CS(=O)(=O)C4)n2)s1 [Example 61, N-(3-(2-((2R,6R)-4-(3,3-difluorocyclobutyl)-2,6-dimethylpiperazin-1-yl)-5-(2-((2,2-dioxido-2-thiaspiro[3.3]heptan-6-yl)amino)-pyrimidin-4-yl)thiazol-4-yl)-2-fluorophenyl)-2,6-difluoro-benzenesulfonamide]
3.86	C[C@H]1CNC[C@H](C)N1c1nc(-c2cccc(NS(=O)(=O)c3c(F)cccc3F)c2F)c(-c2ccnc(NC3CC4(C3)CS(=O)(=O)C4)n2)s1 [Example 62, N-(3-(2-((2S,6S)-2,6-dimethylpiperazin-1-yl)-5-(2-((2,2-dioxido-2-thiaspiro[3.3]heptan-6-yl)amino)pyrimidin-4-yl)thiazol-4-yl)-2-fluorophenyl)-2,6-difluorobenzenesulfonamide]
